Laboratory results reported in US4851420A, “2,6-diamino-3-halobenzylpyridines and processes for their manufacture as well as their use in pharmaceuticals” (ASTA Pharma Aktiengesellschaft, priority 1986, dated 1989).

Columns and labels:
Toxicity, LD50 rat = conditions: in vivo, po
Source text: (§1) Miller, Tainter, Proc. Soc. Exper. Biol. Med. 57, 261 (1944).

Toxicity, LD50 mouse = conditions: in vivo, po
Source text: as §1

[1] = Randall-Selitto Test (analgesia), rat; type: in vivo; conditions: for ED50: po
Source text: Randall-Selitto Test G. Engelhardt, Arzneim. Forsch. 34, 992 et seq. (1984); Maruyama et al., Arzneim. Forsch. 28, 11 (1978).

[2] = acetic acid Writhing Test (analgesia), mouse; type: in vivo; conditions: p.a. (so in the source)
Source text: Acetic acid Writhing Test Koster et al., Fed. Proc., Volume 18, 412 (1959).

[3] = general absence of side-effects (gastrointestinal disorders, gastric ulcers); type: in vivo; conditions: compared to known substances, e.g. non-steroidal anti-inflammatory agents with analgesic components

SMILES	LD50 (Toxicity, LD50 rat)	LD50 (Toxicity, LD50 mouse)	ED50 [1]	ED50 [2]	Randall-Selitto Test Rat, % effect at stated dose ([1]; p.o., at 0.5 mg/kg (printed 0.5/57%))	acetic acid Writhing Test Mouse, % effect at stated dose ([2]; at 0.5 mg/kg (printed 0.5/34%))	side-effects such as gastrointestinal disorders and gastric ulcers [3]
CCOC(=O)Nc1ccc(NCc2ccc(F)cc2)nc1N [Flupirtin, reference compound]	1660 mg/kg	633 mg/kg	38.8 mg/kg	44.5 mg/kg			
Nc1ccc(Cc2ccccc2F)c(N)n1 [D 17746, 2,6-diamino-3-(2-fluoro)benzylpyridine]		276 mg/kg					
Nc1ccc(Cc2c(F)cccc2Cl)c(N)n1 [D 17748, 2,6-diamino-3-(2-fluoro-6-chloro)benzylpyridine]		285 mg/kg			57%	34%	
Nc1ccc(Cc2ccc(F)cc2)c(N)n1 [D 17033, 2,6-diamino-3-(4-fluoro)benzylpyridine]	1100 mg/kg	266 mg/kg	0.2 mg/kg	1.4 mg/kg			general absence of side-effects
